Assay results: PMC12748958 (Nature Communications, 2025)

Target: T1, PsiR-M2 (Agrobacterium fabrum, UniProt A9CH24, R109G/V134A)
T1 sequence (A9CH24 1-359 R109G/V134A): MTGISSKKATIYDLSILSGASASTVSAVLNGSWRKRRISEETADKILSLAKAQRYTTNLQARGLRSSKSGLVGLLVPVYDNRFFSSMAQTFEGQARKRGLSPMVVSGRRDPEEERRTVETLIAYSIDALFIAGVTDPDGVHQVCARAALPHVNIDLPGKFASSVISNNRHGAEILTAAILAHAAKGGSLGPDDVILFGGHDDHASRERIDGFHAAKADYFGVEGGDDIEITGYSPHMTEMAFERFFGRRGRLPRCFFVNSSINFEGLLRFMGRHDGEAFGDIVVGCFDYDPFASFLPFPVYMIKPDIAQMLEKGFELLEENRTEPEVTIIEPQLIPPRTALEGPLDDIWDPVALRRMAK
Assay: microscale thermophoresis
Type: binding

O=C(CO)[C@H](O)[C@H](O)[C@H](O)CO [D-allulose]
microscale thermophoresis (MST) on purified protein: After purifying PsiR-WT, M2, and M4 from E. coli BL21(DE3) via His-tag affinity chromatography
